Experimental findings from patent publication US12558342B2, “2-[2-({12,12-dimethyl-4-oxo-6-phenyl-3,11-dioxatricyclo[8.4.0.0,2,7]tetradeca-1,5,7,9-tetraen-8-yl}oxy)acetamido]benzamide and derivatives as inhibitor of clock:bmal1 interaction for the treatment of circadian rhythm diseases and disorders” (KOC UNIVERSITESI, priority 2019, dated 2026) are described below.

One test concerns the target T1, CLOCK (Homo sapiens, UniProt O15516).
T1 sequence (O15516 1-846): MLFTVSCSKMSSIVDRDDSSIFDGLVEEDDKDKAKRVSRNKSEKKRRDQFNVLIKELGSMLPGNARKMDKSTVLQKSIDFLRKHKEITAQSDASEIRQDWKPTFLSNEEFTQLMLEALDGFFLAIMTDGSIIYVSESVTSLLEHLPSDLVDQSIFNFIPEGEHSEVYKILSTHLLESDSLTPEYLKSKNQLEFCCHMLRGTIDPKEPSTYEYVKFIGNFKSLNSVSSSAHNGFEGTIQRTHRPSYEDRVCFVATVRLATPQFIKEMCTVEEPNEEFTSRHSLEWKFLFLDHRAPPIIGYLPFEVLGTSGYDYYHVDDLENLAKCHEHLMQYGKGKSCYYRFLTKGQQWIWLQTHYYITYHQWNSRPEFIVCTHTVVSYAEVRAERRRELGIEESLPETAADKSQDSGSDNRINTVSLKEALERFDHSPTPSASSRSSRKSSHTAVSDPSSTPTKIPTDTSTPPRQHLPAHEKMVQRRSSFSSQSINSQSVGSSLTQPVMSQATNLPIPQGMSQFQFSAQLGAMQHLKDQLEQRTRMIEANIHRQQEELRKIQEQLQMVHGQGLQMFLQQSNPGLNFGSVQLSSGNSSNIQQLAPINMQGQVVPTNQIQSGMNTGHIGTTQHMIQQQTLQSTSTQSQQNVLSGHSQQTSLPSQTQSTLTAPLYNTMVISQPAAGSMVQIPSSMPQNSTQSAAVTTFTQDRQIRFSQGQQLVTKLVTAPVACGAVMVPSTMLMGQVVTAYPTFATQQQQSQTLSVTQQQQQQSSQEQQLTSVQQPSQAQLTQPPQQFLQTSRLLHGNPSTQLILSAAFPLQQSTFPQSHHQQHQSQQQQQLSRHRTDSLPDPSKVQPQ
As to the kind of experiment: Cytosol-nuclear fractionation of U2OS cells, CLOCK. The test is classed as cell-based. The conditions noted are these: 20 μM, two days. The method, then: (§1) U2 OS cells treated with 20 μM CLK8 and 0.5% DMSO were used for fractionation analysis. The 4×10^5 was suspended in 500 ul cytosolic lysis buffer (10 mM HEPES pH 7,9, 10 mM KCl, 0.1 mM EDTA, 0.05% NP40 with protease inhibitors) and incubated on ice for 10 minutes. The lysate was centrifuged for 3 minutes at 3000 rpm at 4° C. The resulting supernatant was centrifuged one more time and supernatant collected as cytosolic fraction. On the other hand, the resulting pellet from lysate centrifugation was suspended in nuclear lysis buffer (20 mM HEPES pH 7.9, 0.4 M NaCl, 1 mM EDTA, 10% glycerol with protease inhibitors) and sonicated 2 times 10 seconds with 60% power. After centrifuge at 15 000 g for 5 minutes at 4° C., supernatant was collected as nuclear fraction. Collected fractions were used for Western Blot analysis. Fractionation efficiency was checked with Western Blot by using tubulin (Sigma T9026) as cytosolic marker and Histone-H3 (abcam ab1791) as nuclear marker.

The test system of test [1] is wild type MDA MB231 cells. As to the kind of experiment: Bmal1::dluc rhythm in wild type MDA MB231 cells. In kind it is cell-based. The method, then:
We used Bmal1::dluc U2-OS and Per1::dluc NIH 3T3, and continuously monitored the bioluminescence to record circadian rhythm. This experiment was performed in 96-well plates (triplicates) and 35-mm dishes (duplicates) in the secondary screen and detailed characterization steps respectively. Briefly, cells were seeded to reach confluency. A day after, the medium was replaced with DMEM containing 0.1 μM Dexamethasone to synchronize cells. […] The 96-well plates were covered and bioluminescence was monitored by Synergy H1 Hybrid Multi-Mode Reader every 32 minutes. […] Bioluminescence was recorded every 10 minutes for 4-6 days. […] The first day's data was excluded from the analysis due to transient perturbations of luminescence after the medium change.
HEK 293T cells at 75-85% confluency were transfected with […] of pLV6-Bmal-luc plasmid, 9 ng of pCMV-AR8.2dvpr packaging vector and 1 ng of pCMV-VSVG envelope vector for 16 h. […] At 72-hour post-transduction, the circadian rhythms of cells monitored using Lumicycle.
We used Bmal1::dluc U2-OS and Per1::dluc NIH 3T3, and continuously monitored the bioluminescence to record circadian rhythm. […] The 96-well plates were covered and bioluminescence was monitored by Synergy H1 Hybrid Multi-Mode Reader every 32 minutes. […] Bioluminescence was recorded every 10 minutes for 4-6 days. […]

Test [2] has as its system PER2, NPAS2, BMAL1 and CRY1. Put plainly: Cytosol-nuclear fractionation of U2OS cells, other clock proteins. The conditions noted are these: 20 μM, two days. In kind it is cell-based, human. How it is done: as §1

Regarding `CC1(C)CCc2c(cc(OCC(=O)Nc3ccccc3C(N)=O)c3c(-c4ccccc4)cc(=O)oc23)O1` [CLK8, 2-[2-({12,12-dimethyl-4-oxo-6-phenyl-3,11-dioxatricyclo [8.4.0.0,2,7]tetradeca-1,5,7,9-tetraen-8-yl}oxy)acetamido] benzamide], on CLOCK, the “level of CLOCK in the nucleus” value is given as “reduced”. In test [1], the “amplitude of circadian rhythm” value is reported as “enhance amplitude”. The “level of PER2, NPAS2, BMAL1 and CRY1” value in test [2] is “comparable to the control samples”.
